Measurements: ChEMBL document CHEMBL2390909, “2-Arylpaullones are selective antitrypanosomal agents” (Eur J Med Chem, 2013)

Tests used:
[1] = Cytotoxicity against human THP1 macrophages after 48 hrs by Alamar Blue assay; type: cell-based; details: THP-1 macrophages
[2] = tested on: Trypanosoma brucei rhodesiense; assay: Antitrypanosomal activity against blood stage of Trypanosoma brucei rhodesiense STIB 900 (S704) Tanzania after 70 hrs by Alamar Blue assay; type: functional; details: STIB 900, 70 h
[3] = Selectivity index, ratio of GI50 for human THP1 macrophages to GI50 for blood stage of Trypanosoma brucei rhodesiense STIB 900

GI50 [2] [µM]	Compound	GI50 at 48 h [1] [µM]	RatioGI50 [3]
0.61	CC(C)(C)c1ccc2[nH]c3c(c2c1)CC(=O)Nc1ccc(C(=O)/C=C/c2ccccc2)cc1-3	> 100	>163.9
0.72	COc1ccc(-c2ccc3c(c2)-c2[nH]c4ccc(C(C)(C)C)cc4c2CC(=O)N3)cc1	> 100	>138.9
1.6	COc1cccc(-c2ccc3c(c2)-c2[nH]c4ccc(C(C)(C)C)cc4c2CC(=O)N3)c1	> 100	>62.5
2.3	CN(C)c1cccc(-c2ccc3c(c2)-c2[nH]c4ccc(C(C)(C)C)cc4c2CC(=O)N3)c1	93.9	40.8
0.76	CC(C)(C)c1ccc2[nH]c3c(c2c1)CC(=O)Nc1ccc(-c2ccc4c(c2)OCO4)cc1-3	> 100	>131.6
0.51	CC(C)(C)c1ccc2[nH]c3c(c2c1)CC(=O)Nc1ccc(-c2ccc(N4CCOCC4)cc2)cc1-3	80	156.9
2.3	CC(C)(C)c1ccc2[nH]c3c(c2c1)CC(=O)Nc1ccc(CCC(=O)c2ccccc2)cc1-3	> 100	>88.8
3.9	CC(C)(C)c1ccc2[nH]c3c(c2c1)CC(=O)Nc1ccc(/C=C/C(=O)N2CCOCC2)cc1-3	13.7	3.5
4.7	CC(C)(C)c1ccc2[nH]c3c(c2c1)CC(=O)Nc1ccc(/C=C/C(=O)N2CCCCC2)cc1-3	6.2	1.3
1.1	CCN(CC)C(=O)/C=C/c1ccc2c(c1)-c1[nH]c3ccc(C(C)(C)C)cc3c1CC(=O)N2	4.1	3.7
3.5	CC(C)(C)c1ccc2[nH]c3c(c2c1)CC(=O)Nc1ccc(/C=C/C(=O)NCc2ccccc2)cc1-3	0.93	<1
24.4	CN1CCN(C(=O)/C=C/c2ccc3c(c2)-c2[nH]c4ccc(C(C)(C)C)cc4c2CC(=O)N3)CC1	17.8	<1
1.5	CC(C)(C)c1ccc2[nH]c3c(c2c1)CC(=O)Nc1ccc(/C=C/C(=O)Nc2ccccc2)cc1-3	0.34	<1
1.6	CC(C)(C)c1ccc2[nH]c3c(c2c1)CC(=O)Nc1ccc(/C=C/C(=O)Nc2cccc(Cl)c2)cc1-3	0.85	<1
2.5	CC(C)(C)c1ccc2[nH]c3c(c2c1)CC(=O)Nc1ccc(/C=C/C(=O)Nc2ccc(Cl)cc2)cc1-3	0.47	<1
1.7	Cc1ccc(NC(=O)/C=C/c2ccc3c(c2)-c2[nH]c4ccc(C(C)(C)C)cc4c2CC(=O)N3)cc1	1.3	<1

GI50 [2] [µM]	Compound	GI50 at 48 h [1] [µM]	RatioGI50 [3]
1.5	COc1ccc(NC(=O)/C=C/c2ccc3c(c2)-c2[nH]c4ccc(C(C)(C)C)cc4c2CC(=O)N3)cc1	0.36	<1
1.8	CC(C)(C)c1ccc2[nH]c3c(c2c1)CC(=O)Nc1ccc(-c2ccccc2)cc1-3	> 100	>55.6
1.7	COCCc1ccc(OCc2cccc(-c3ccc4c(c3)-c3[nH]c5ccc(C(C)(C)C)cc5c3CC(=O)N4)c2)cc1	12.9	7.6
2.6	CC(C)(C)c1ccc2[nH]c3c(c2c1)CC(=O)Nc1ccc(-c2ccc(C(F)(F)F)cc2)cc1-3	55.1	21.2
3	CC(C)(C)c1ccc2[nH]c3c(c2c1)CC(=O)Nc1ccc(-c2ccc(OC(F)(F)F)cc2)cc1-3	> 100	>33.3
4	CC(C)(C)c1ccc2[nH]c3c(c2c1)CC(=O)Nc1ccc(/C=C/C(=O)c2ccccc2)cc1-3	17.6	4.4
12.2	COc1ccc(C(=O)/C=C/c2ccc3c(c2)-c2[nH]c4ccc(C(C)(C)C)cc4c2CC(=O)N3)cc1	32.6	2.7
18.3	CC(C)(C)c1ccc2[nH]c3c(c2c1)CC(=O)Nc1ccc(/C=C/C(=O)c2ccc(Cl)cc2)cc1-3	40.8	2.2
0.57	CC(C)(C)c1ccc2[nH]c3c(c2c1)CC(=O)Nc1ccc(/C=C/C(=O)c2ccco2)cc1-3	1.3	2.3
9	CC(C)(C)c1ccc2[nH]c3c(c2c1)CC(=O)Nc1ccc(/C=C/C(=O)c2cccnc2)cc1-3	47.9	8.7
2.6	COc1cc(C(=O)/C=C/c2ccc3c(c2)-c2[nH]c4ccc(C(C)(C)C)cc4c2CC(=O)N3)cc(OC)c1OC	14.7	5.6
1.2	COc1ccc(OC)c(C(=O)/C=C/c2ccc3c(c2)-c2[nH]c4ccc(C(C)(C)C)cc4c2CC(=O)N3)c1	2.2	1.8
5.4	COc1ccc(C(=O)/C=C/c2ccc3c(c2)-c2[nH]c4ccc(C(C)(C)C)cc4c2CC(=O)N3)c(OC)c1	31.4	5.8
4.2	COc1ccc(C(=O)/C=C/c2ccc3c(c2)-c2[nH]c4ccc(C(C)(C)C)cc4c2CC(=O)N3)cc1OC	9.6	2.3
1.1	CC(C)(C)c1ccc2[nH]c3c(c2c1)CC(=O)Nc1ccc(/C=C/C(=O)c2cccs2)cc1-3	3.7	3.4
7.4	CC(C)(C)c1ccc2[nH]c3c(c2c1)CC(=O)Nc1ccc(/C=C/C(=O)c2ccc(O)cc2)cc1-3	72.6	9.8
